In the supplement of paper PMC10307832:

Key:
Experiment in all cases: relative viability (nuclei count vs DMSO), 5 days (fraction); higher = more cells survive
[1] = compound: C[C@]1(O)C[C@@H](c2nc(-c3ccc4ccc(-c5ccccc5)nc4c3)c3c(N)nccn32)C1 [Linsitinib] + Cc1cc(Nc2cc(N3CCN(C)CC3)nc(Sc3ccc(NC(=O)C4CC4)cc3)n2)n[nH]1 [Tozasertib] (partner 0.1 µM)
Summary of the method: (§1)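 Five library-drug doses in √10 steps were combined with a fixed anchor-drug dose, or a single drug was given alone, by pin tool to lung cancer cell lines in 1536-well plates the day after seeding. Nuclei were stained and counted after 5 days. Relative viability is the nuclei count in treated wells over that in vehicle wells, taken as the median of duplicate plates.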

[2] = compound: Cc1ccc(C(=O)N(CCCN)[C@@H](c2nc3cc(Cl)ccc3c(=O)n2Cc2ccccc2)C(C)C)cc1 [Ispinesib] + CC1(C)CCC(c2ccc(Cl)cc2)=C(CN2CCN(c3ccc(C(=O)NS(=O)(=O)c4ccc(N[C@H](CCN5CCOCC5)CSc5ccccc5)c(S(=O)(=O)C(F)(F)F)c4)cc3)CC2)C1 [Navitoclax] (partner 0.5 µM)
Summary of the method: as §1

[3] = compound: C[C@]1(O)C[C@@H](c2nc(-c3ccc4ccc(-c5ccccc5)nc4c3)c3c(N)nccn32)C1 [Linsitinib] + Cc1nc(NC(=O)N2CCC[C@H]2C(N)=O)sc1-c1ccnc(C(C)(C)C(F)(F)F)c1 [Alpelisib] (partner 2 µM)
Summary of the method: as §1

[4] = compound: Cc1ccc(C(=O)N(CCCN)[C@@H](c2nc3cc(Cl)ccc3c(=O)n2Cc2ccccc2)C(C)C)cc1 [Ispinesib] + O=C(c1cc(Cc2n[nH]c(=O)c3ccccc23)ccc1F)N1CCN(C(=O)C2CC2)CC1 [Olaparib] (partner 8 µM)
Summary of the method: as §1

Cell Line	relative viability ([1]; first compound 0.01 µM)	relative viability ([1]; first compound 0.03162 µM)	relative viability ([1]; first compound 0.1 µM)	relative viability ([1]; first compound 0.3162 µM)	relative viability ([1]; first compound 1 µM)	relative viability ([2]; first compound 0.001 µM)	relative viability ([2]; first compound 0.003162 µM)	relative viability ([2]; first compound 0.01 µM)	relative viability ([2]; first compound 0.03162 µM)	relative viability ([2]; first compound 0.1 µM)	relative viability ([3]; first compound 0.01 µM)	relative viability ([3]; first compound 0.03162 µM)	relative viability ([3]; first compound 0.1 µM)	relative viability ([3]; first compound 0.3162 µM)	relative viability ([3]; first compound 1 µM)	relative viability ([4]; first compound 0.001 µM)	relative viability ([4]; first compound 0.003162 µM)	relative viability ([4]; first compound 0.01 µM)	relative viability ([4]; first compound 0.03162 µM)	relative viability ([4]; first compound 0.1 µM)
HCC-44	1.1	0.889	0.849	0.557	0.573	1.02	1	1.2	1.05	0.265	0.751	0.677	0.691	0.499	0.606	0.984	0.993	1.03	1.06	0.938
LK-2	0.179	0.173	0.172	0.18	0.177	0.93	0.808	1.01	0.661	0.298	1.04	1.12	1.33	0.804	1.11	0.795	0.814	0.698	0.632	0.329
HCC-827	0.43	0.426	0.433	–	0.393	0.996	1.06	1.03	1	1.01	0.995	1.02	0.967	–	0.915	0.652	0.672	0.67	0.686	0.601
SW 1573	0.213	0.171	0.189	0.186	0.136	1.22	1	1.21	0.915	0.17	0.677	0.831	0.761	0.655	0.654	0.541	0.421	0.447	0.142	0.185
NCI-H2023	0.256	0.228	0.36	0.196	0.177	1.07	1.09	1.1	0.837	0.21	0.533	0.426	0.502	0.425	0.392	0.543	0.553	0.511	0.271	0.232
EPLC-272H	0.358	0.249	–	–	0.222	1.24	1.21	1.25	0.784	1.02	0.909	0.942	0.87	–	0.925	0.776	0.781	0.769	0.308	0.155
SK-LU-1	0.357	–	0.383	0.203	0.243	0.955	0.794	1.23	0.415	0.164	0.975	0.908	1.03	–	1.09	0.606	0.449	0.393	0.435	0.356
NCI-H1395	0.838	0.768	0.723	0.731	0.667	1.32	1.1	1.16	0.553	0.326	0.945	0.915	1.24	0.962	0.957	0.436	0.446	0.439	0.369	0.356
NCI-H2085	0.768	0.748	0.932	0.817	0.706	1.12	1.17	1.19	1.13	0.672	0.886	1.12	1.06	0.888	0.922	0.747	0.779	0.845	0.792	0.544
NCI-H2087	0.219	0.259	0.196	0.141	0.203	0.976	1.07	1.23	0.933	0.156	1.06	1.2	1.02	0.853	0.815	0.708	0.694	0.801	0.545	0.145
NCI-H322M	0.44	0.455	0.568	0.399	0.463	1.2	1.13	1.15	1.14	1.15	0.711	0.774	0.921	0.703	0.673	0.804	0.81	0.855	0.786	0.549
NCI-H1734	0.242	0.244	0.274	0.242	0.267	0.868	0.952	1.04	0.777	0.549	0.688	0.744	0.65	0.692	0.612	0.613	0.658	0.64	0.675	0.449
NCI-H2228	0.273	0.308	0.272	0.296	0.199	0.896	0.896	1.37	0.878	0.187	0.594	0.746	0.723	0.493	0.586	0.857	0.717	0.543	0.418	0.327
EKVX	0.362	0.385	0.493	0.214	0.352	1.07	0.964	1.06	0.75	0.22	0.842	0.848	0.856	0.901	0.756	0.83	–	1.05	0.831	0.317
NCI-H596	0.889	0.948	0.822	0.724	0.812	0.865	0.9	1.07	1.05	0.458	0.508	0.532	0.406	0.418	0.443	0.652	0.629	0.638	0.671	0.571
NCI-H1975	0.691	0.677	0.865	0.665	0.311	1.16	1.25	1.27	1.14	0.186	0.608	0.62	0.647	0.543	0.453	0.864	0.802	0.842	0.922	0.181
